This passage reports CC50 and EC50 results from patent publication US20230382909A1, “BICYCLIC COMPOUNDS” (Aligos Therapeutics, Inc., priority 2022, published 2023).

The nature of data set [1]: Cell viability by CellTiter-Glo 2.0 (intracellular ATP content) in HepG2.117 cells. The following applies: human, CellTiter-Glo 2.0, 3 days incubation. It is filed as cell-based. As to the method:
(§1) The following assay procedure describes the HBV antiviral assay, using HepG2.117 cells, which carry a stably integrated genotype D HBV genome under the control of a Tet-off promoter, and intracellular HBV DNA quantification as endpoint. Cell viability is assessed in parallel by measuring the intracellular ATP content using CellTiter-Glo 2.0 (Promega).
(§2) On day 1, medium is removed from each well, the test articles are diluted in culture medium without doxcycyline and 100 μL was added to cell culture wells (9 concentrations, 4-fold dilution). For each plate, 6 untreated (merely DMSO) wells are included. The final concentration of DMSO in the culture medium is 2%. Each plate is prepared in duplicate (one for HBV DNA extraction, one for CellTiter-Glo 2.0 measurement). The cells are incubated at 37° C. and 5% CO2 for 3 days.
(§3) On day 4, cell viability is assessed using CellTiter-Glo 2.0 and cell lysates are prepared for HBV DNA extraction and subsequent quantification by qPCR.
Using the other plates, the cell viability is quantified by CellTiter-Glo 2.0 according to the manufacturer's manual. In brief, 100 μL of reagent solution is added to the culture plates and shaken for 2′. The plates are incubated at rt for 10 min and luminescence signal is subsequently measured on a VarioSkan Lux (ThermoFisher) plate reader.
(§4) Cell viability is calculated as follows: % Cell viability=(luminescence value of test sample)/(average luminescence value of 2% DMSO control)×100%. HBV DNA inhibition was calculated as follows: 100−(HBV DNA copy number of test sample)/(average HBV DNA copy number of 2% DMSO control)×100%. No normalization to entecavir is required due to the excellent dynamic window of this assay. The CC50, EC50 and EC9o values were determined by dose-response curves fitted using non-linear regression.
(In general: ATP-based viability assays read luminescence as a measure of living cells.)

The test system of a further data set is HBV. The data set is described as follows: HBV-DNA antiviral assay using HepG2.117 cells. The following applies: Hepatitis B virus, HepG2.117, 72 h. The class given is cell-based, HBV genotype D. As to the method: as §1
On day 0, HepG2.117 cells (which are maintained in routine cell culture with doxycycline present in the medium at a final concentration of 1 μg/mL) are seeded in 96-well plates (white with clear bottom) at a density of 2.0×10^4 cells/well (0.1 mL/well) in medium without doxycycline to induce pgRNA transcription and subsequent formation of HBV particles. The cells are incubated at 37° C. and 5% CO2.
as §2, §3
HBV DNA Quantification by qPCR
Medium is removed from each well and 100 μL of 0.33% NP-40 in H2O was added to each well. Plates are sealed, incubated at 4° C. for 5 mins, vortexed extensively and centrifuged briefly. Next, 35 μL of lysate is added to 65 μL QuickExtract DNA Extraction Solution (Epicentre) in a PCR plate for each well. PCR plate is incubated at 65° C. for 6 mins, 98° C. for 2 mins and finally cooled to 4° C. HBV DNA is then quantified by qPCR with HBV-specific primers and probes as specified in Table 3 using the Bio-Rad SSOAdvanced Universal Probes Supermix on a CFX96 machine (Bio-Rad). The PCR cycle program consisted of 95° C. for 3 mins, followed by 40 cycles at 95° C. for 10 sec and 60° C. for 30 sec.
A DNA standard is prepared by dilution of an IDT gBlock corresponding to the amplicon with concentrations ranging from 10^2 to 10^8 copies/input (i.e., per 4 μL) and used to generate a standard curve by plotting Cq values vs. HBV DNA standard concentration. The quantity of HBV DNA in each sample is determined by interpolating from the standard curve.
as §4

pEC50: −log10 of the molar value.

As to `CNC(=O)c1ccc(-n2c(-n3nc(C)cc3C)nc3c(c2=O)C[C@@H](C)N(C(=O)c2ccc(Br)c(C(F)(F)F)c2)C3)cc1Cl` [Compound 2, (R)-4-(7-(4-bromo-3-(trifluoromethyl)benzoyl)-2-(3,5-dimethyl-1H-pyrazol-1-yl)-6-methyl-4-oxo-5,6,7,8-tetrahydropyrido[3,4-d]pyrimidin-3(4H)-yl)-2-chloro-N-methylbenzamide], in data set [1], the CC50 at 3 days is more than 500 nM. The compound further showed a pEC50 in the data set on HBV of more than 7.30.

The compound `Cc1cc(C)n(-c2nc3c(c(=O)n2-c2cc(F)c4ncn(C)c4c2)C[C@@H](C)N(C(=O)c2ccc(Br)c(C(F)(F)F)c2)C3)n1` [Compound 21, (6R)-7-[4-bromo-3-(trifluoromethyl)benzoyl]-2-(3,5-dimethylpyrazol-1-yl)-3-(7-fluoro-3-methyl-benzimidazol-5-yl)-6-methyl-6,8-dihydro-5H-pyrido[3,4-d]pyrimidin-4-one] returned a CC50 at 3 days in data set [1] of more than 500 nM. In the data set on HBV, this compound had a negative logarithm of the EC50 (pEC50) of more than 7.30.

As to `Cc1cc(C)n(-c2nc3c(c(=O)n2-c2ccc(NC[C@H](C)O)nc2)C[C@@H](C)N(C(=O)c2ccc(Br)c(C(F)(F)F)c2)C3)n1` [Compound 29, (6R)-7-[4-bromo-3-(trifluoromethyl)benzoyl]-2-(3,5-dimethylpyrazol-1-yl)-3-[6-[[(2S)-2-hydroxypropyl]amino]-3-pyridyl]-6-methyl-6,8-dihydro-5H-pyrido[3,4-d]pyrimidin-4-one], the CC50 at 3 days in data set [1] was more than 500 nM. The same compound gave a pEC50 in the data set on HBV of more than 7.30.

In the case of `Cc1cc(C)n(-c2nc3c(c(=O)n2-c2ccc(NC(C)C)nc2)C[C@@H](C)N(C(=O)c2ccc(Br)c(C(F)(F)F)c2)C3)n1` [Compound 25, (6R)-7-[4-bromo-3-(trifluoromethyl)benzoyl]-2-(3,5-dimethylpyrazol-1-yl)-3-[6-(isopropylamino)-3-pyridyl]-6-methyl-6,8-dihydro-5H-pyrido[3,4-d]pyrimidin-4-one], the CC50 at 3 days in data set [1] is more than 500 nM. In the data set with HBV, the pEC50 was more than 7.30.

`Cc1cc(C)n(-c2nc3c(c(=O)n2-c2ccc(NC[C@@H](O)CO)nc2)C[C@@H](C)N(C(=O)c2ccc(Br)c(C(F)(F)F)c2)C3)n1` [Compound 30, (6R)-7-[4-bromo-3-(trifluoromethyl)benzoyl]-3-[6-[[(2R)-2,3-dihydroxypropyl]amino]-3-pyridyl]-2-(3,5-dimethylpyrazol-1-yl)-6-methyl-6,8-dihydro-5H-pyrido[3,4-d]pyrimidin-4-one]: the CC50 at 3 days in data set [1] was more than 500 nM. This compound had a pEC50 with HBV of 6.30 to 7.30.

Take `Cc1cc(C)n(-c2nc3c(c(=O)n2-c2cnc4c(c2)ncn4C)C[C@@H](C)N(C(=O)c2ccc(Br)c(C(F)(F)F)c2)C3)n1` [Compound 19, (6R)-7-[4-bromo-3-(trifluoromethyl)benzoyl]-2-(3,5-dimethylpyrazol-1-yl)-6-methyl-3-(3-methylimidazo[4,5-b]pyridin-6-yl)-6,8-dihydro-5H-pyrido[3,4-d]pyrimidin-4-one]: the CC50 at 3 days in data set [1] is more than 500 nM. The negative-log EC50 (pEC50) with HBV was more than 7.30.

For the compound `Cc1cc(C)n(-c2nc3c(c(=O)n2-c2ccc(N4CCN(C(C)C)CC4)nc2)C[C@@H](C)N(C(=O)c2ccc(Br)c(C(F)(F)F)c2)C3)n1` [Compound 34, (6R)-7-[4-bromo-3-(trifluoromethyl)benzoyl]-2-(3,5-dimethylpyrazol-1-yl)-3-[6-(4-isopropylpiperazin-1-yl)-3-pyridyl]-6-methyl-6,8-dihydro-5H-pyrido[3,4-d]pyrimidin-4-one], the CC50 at 3 days in data set [1] is more than 500 nM. This compound also had a pEC50 with HBV of more than 7.30.

The compound `Cc1cc(C)n(-c2nc3c(c(=O)n2-c2ccc(OC[C@@H](O)CO)cc2)C[C@@H](C)N(C(=O)c2ccc(Br)c(C(F)(F)F)c2)C3)n1` [Compound 6, (R)-7-(4-bromo-3-(trifluoromethyl)benzoyl)-3-(4-((S)-2,3-dihydroxypropoxy)phenyl)-2-(3,5-dimethyl-1H-pyrazol-1-yl)-6-methyl-5,6,7,8-tetrahydropyrido[3,4-d]pyrimidin-4(3H)-one] showed a CC50 at 3 days in data set [1] of more than 500 nM. This compound also showed a pEC50 in the data set on HBV of 6.30 to 7.30.

`Cc1cc(C)n(-c2nc3c(c(=O)n2-c2ncc(N)cn2)C[C@@H](C)N(C(=O)c2ccc(Br)c(C(F)(F)F)c2)C3)n1` [Compound 41, (R)-3-(5-aminopyrimidin-2-yl)-7-(4-bromo-3-(trifluoromethyl)benzoyl)-2-(3,5-dimethyl-1H-pyrazol-1-yl)-6-methyl-5,6,7,8-tetrahydropyrido[3,4-d]pyrimidin-4(3H)-one] yielded a CC50 at 3 days in data set [1] of more than 500 nM. Moreover, the pEC50 in the data set on HBV was more than 7.30.

With `CNc1cnc(-n2c(-n3nc(C)cc3C)nc3c(c2=O)C[C@@H](C)N(C(=O)c2ccc(Br)c(C(F)(F)F)c2)C3)nc1` [Compound 42, (R)-7-(4-bromo-3-(trifluoromethyl)benzoyl)-2-(3,5-dimethyl-1H-pyrazol-1-yl)-6-methyl-3-(5-(methylamino)pyrimidin-2-yl)-5,6,7,8-tetrahydropyrido[3,4-d]pyrimidin-4(3H)-one], the cytotoxic concentration (CC50) at 3 days in data set [1] was more than 500 nM. In the data set on HBV, this compound gave a pEC50 of more than 7.30.

As to `Cc1cc(C)n(-c2nc3c(c(=O)n2-c2ccc(O[C@H]4C[C@@H](O)C4)cc2)C[C@@H](C)N(C(=O)c2ccc(Br)c(C(F)(F)F)c2)C3)n1` [Compound 37, (R)-7-(4-bromo-3-(trifluoromethyl)benzoyl)-2-(3,5-dimethyl-1H-pyrazol-1-yl)-3-(4-((1s,3S)-3-hydroxycyclobutoxy)phenyl)-6-methyl-5,6,7,8-tetrahydropyrido[3,4-d]pyrimidin-4(3H)-one], in data set [1], the CC50 at 3 days is more than 500 nM. This compound also had a pEC50 in the data set with HBV of more than 7.30.

For `Cc1cc(C)n(-c2nc3c(c(=O)n2-c2ccc(N[C@H]4C[C@@H](O)C4)nc2)C[C@@H](C)N(C(=O)c2ccc(Br)c(C(F)(F)F)c2)C3)n1` [Compound 35, (R)-7-(4-bromo-3-(trifluoromethyl)benzoyl]-2-(3,5-dimethyl-1H-pyrazol-1-yl)-3-(6-(((1s,3S)-3-hydroxycyclobutyl)amino)pyridin-3-yl)-6-methyl-5,6,7,8-tetrahydropyrido[3,4-d]pyrimidin-4(3H)-one], the CC50 at 3 days in data set [1] is more than 500 nM. Moreover, the pEC50 in the data set on HBV is more than 7.30.

In the case of `Cc1cc(C)n(-c2nc3c(c(=O)n2-c2ccc(O)cc2)C[C@@H](C)N(C(=O)c2ccc(Br)c(C(F)(F)F)c2)C3)n1` [Compound 4, (R)-7-(4-bromo-3-(trifluoromethyl)benzoyl)-2-(3,5-dimethyl-1H-pyrazol-1-yl)-3-(4-hydroxyphenyl)-6-methyl-5,6,7,8-tetrahydropyrido[3,4-d]pyrimidin-4(3H)-one], the half-maximal cytotoxic concentration (CC50) at 3 days in data set [1] was more than 500 nM. For the same compound, the pEC50 with HBV was more than 7.30.

In data set [1], `Cc1cc(C)n(-c2nc3c(c(=O)n2-c2ccc(-c4cnn(C)c4)cn2)C[C@@H](C)N(C(=O)c2ccc(Br)c(C(F)(F)F)c2)C3)n1` [Compound 16, (6R)-7-[4-bromo-3-(trifluoromethyl)benzoyl]-2-(3,5-dimethylpyrazol-1-yl)-6-methyl-3-[5-(1-methylpyrazol-4-yl)-2-pyridyl]-6,8-dihydro-5H-pyrido[3,4-d]pyrimidin-4-one] displayed a CC50 at 3 days of more than 500 nM. Besides, the negative-log EC50 (pEC50) with HBV is more than 7.30.

Regarding `Cc1cc(C)n(-c2nc3c(c(=O)n2-c2ccc(N4CC[C@@H](O)C4)nc2)C[C@@H](C)N(C(=O)c2ccc(Br)c(C(F)(F)F)c2)C3)n1` [Compound 9, (R)-7-(4-bromo-3-(trifluoromethyl)benzoyl)-2-(3,5-dimethyl-1H-pyrazol-1-yl)-3-(6-((R)-3-hydroxypyrrolidin-1-yl)pyridin-3-yl)-6-methyl-5,6,7,8-tetrahydropyrido[3,4-d]pyrimidin-4(3H)-one], the CC50 at 3 days in data set [1] was more than 500 nM. In the data set with HBV, this compound had a pEC50 of more than 7.30.

Broadly, the CC50 is the concentration that lowers cell viability or growth by half. The low end stands for harm at low concentration, the high end for better tolerance by the cells. One may read the pEC50 as the negative decadic logarithm of the EC50, by convention in mol/L. A higher pEC50 goes with a small EC50.
